In US7642239B2, “Inhibition of placenta growth factor (PLGF) mediated metastasis and/or angiogenesis” (Center for Molecular Medicine and Immunology, priority 2005, dated 2010):
Ends that are not written are not given here.

Key:
[1] = system: MCF-7 human breast cancer cells; type: cell-based; conditions: human, 24 h, 2 μM
Procedure: MTT (3-(4,5-dimethylthiazolyl-2)-2,5-diphenyltetrazolium bromide, Sigma) assays were performed under conditions of low serum (1%) to determine PlGF effects on cell viability, the toxicity of the peptides, and their effect on PlGF-mediated breast tumor cell growth (Mosmann, 1983, J Immunol Meth 65:55-63; Modrak et al., 2000, Biochem Biophys Res Commun 268:603-606). Peptide concentration was 1-2 μM, and the concentration of exogenous PlGF was 2 nM. The human breast tumor lines tested were: MDA-MB-231, MDA-MB-468 and MCF-7 (ATCC, Mannasses, Va.). Briefly, 96-well plates were seeded with 5-10×10^4 cells/ml in medium containing 1% fetal bovine serum (FBS). After 24 h, cells were treated with individual peptides at a concentration of 1-2 μM (4 binding peptides), in quadruplicate, and/or rhuPlGF at a 2-nM concentration. After the designated time points, 0.5 mg/ml MTT (5 mg/ml stock diluted 1:10 in RPMI medium with no serum) was added to the wells (Mosmann, 1983). When purple crystals were clearly visible in the cells, and the plate appeared to be fully developed, the reaction was terminated with acid alcohol (0.04M HCl in isopropanol). Absorbance of the dissolved crystals was read at 570 nm. The 24-h time point was chosen because the in vitro effects of PlGF on tumor cell migration were measurable at this time (see wound-healing assay below). These assays were also performed using medium with 10% FBS, with similar results.

[2] = system: MDA-MB-231; experiment: Matrigel cell invasion assay, MDA-MB-231; type: cell-based, human
Procedure: Cellular invasion was determined by addition of 5×10^4cells to growth factor-reduced Matrigel invasion chambers (BD Biosciences Discovery Labware, Bedford, Mass.) (Taylor et al., 2003b; Passaniti et al., 1992, Lab Invest 67, 519-528). Additives to the Matrigel® plugs were pre-incubated together in a total volume of 100 μl PBS at RT for 10 min, after which each additive was added to the Matrigel. Growth factors (2.0 or 0.2 nM), peptide (2 μg/ml), or antibody (1 μg/ml) were added to cells in low serum (0.1% fetal bovine serum [FBS]) medium. Baseline and chemoattractant-based invasion (10% FBS) were included. The number of invading cells was determined by counting the number of cells on the bottom of the invasion chamber membrane after staining at 100× magnification after 24 h (MDA-MB-231) or 48 h (MCF-7, MDA-MB-468). The results of three to five separate experiments are presented.

[3] = target: T1, VEGF165 (Homo sapiens, UniProt P15692); experiment: Free peptide binding ELISA (FLAG epitope probe), VEGF-coated wells
T1 construct: purchased R&D Systems
T1 sequence (P15692 27-191 isoform P15692-4): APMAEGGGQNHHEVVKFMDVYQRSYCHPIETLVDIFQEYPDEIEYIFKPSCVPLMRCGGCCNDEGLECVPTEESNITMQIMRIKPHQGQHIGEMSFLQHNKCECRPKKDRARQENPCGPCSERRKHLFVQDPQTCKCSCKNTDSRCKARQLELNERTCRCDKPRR
Procedure: Competition assays were done with 2.5 or 25 U/ml heparin (Sigma, St. Louis, Mo.). BP1, 3, 4, and a scrambled version of BP3 (scrBP3) were synthesized with a linker followed by the FLAG epitope ([…] SEQ ID NO:5) at the C-terminus. Thirty minutes after addition of the first reagent, the second reagent was added, followed by another 30 minute incubation. Peptide binding was assessed by probing for the FLAG epitope (Prickett et al., Biotechniques 7:580-9, 1989; Castrucci et al., J. Virol. 66:4647-53, 1992). Absorbance was read at 490 nm.

[4] = system: MDA-MB-468 xenografts; type: in vivo, mice; conditions: 200 μg/dose i.p., twice-weekly
Procedure: FIG. 5. Treatment of mice bearing MDA-MB-468 xenografts with peptides BP1 or BP3. Mice were treated every 3-4 days with 200 ug BP as described in Methods. Tumor volume was measured 2×/week. *P<0.05 at days 10, 14, 17 and 24 (change in tumor volume (ANOVA)). FIG. 5A—tumors treated with binding peptide 1. FIG. 5B—tumors treated with binding peptide 3.
Mice bearing MDA-MB-468 xenografts (average tumor volume: 0.19 cm^3) were treated with i.p. injections of individual peptides (200 μg/dose) (FIG. 5). After 4 weeks of twice-weekly treatment, tumor growth was inhibited by 49% and 58% in mice treated with BP1 (FIG. 5A) or BP3 (FIG. 5B), respectively. The effect of BP3 on tumor growth was apparent after 2 weeks of treatment (FIG. 5B), whereas the inhibitory effect of BP1 was evident after one week (FIG. 5A). The average changes in individual tumor volumes during treatment with BP1 were significant (P<0.05) at days 10, 14, 17 and 24 (FIG. 5A). Treatment with BP2 was ineffective; tumors continued to grow at almost the same rate as the mock-treated controls (results not shown). BP4 treatment produced a 20% inhibition of tumor growth (results not shown).

SHRYRLAIQLHASDSSSSCV [BP1] was tested. Which “viability lowered, peptide alone” value [1] did it give?
The value was 21%.

What about the “Average fold-change in the number of cells on the membrane compared to untreated controls” value ([2]; PlGF 0.2 nM ± peptide 2 μg/ml, 24 h) of the same sequence?
The value was 1.3 ± 0.1 fold.

And the “invading cells, PlGF plus peptide” value ([2]; PlGF-stimulated invasion with added peptide, 24 h)?
Its value is 15±4.2 cells.

What about the “decrease in PlGF-stimulated invasion” value ([2]; added peptide) of the same sequence?
The value was 50%.

What about the “Average fold-change in the number of cells on the membrane compared to untreated controls” value ([2]; peptide 2 μg/ml alone, 24 h) of the same sequence?
Its value is 1.0 ± 0.6 fold.

What about the “binding to VEGF (in words)” value ([3]; ELISA-based binding assay) of the same sequence?
Its value is “No measurable binding”.

What about the “binding to VEGF165 (A490)” value ([3]; peptide with C-terminal FLAG epitope) of the same sequence?
The value was 0.299±0.174.

What about the “duration of treatment after which effect on tumor growth was apparent” value [4] of the same sequence?
The value was “one week”.
